Laboratory results published in patent publication US12508233B2, “Graft copolymers, methods of forming graft copolymers, and methods of use thereof” (Vanderbilt University, priority 2018, dated 2025).

System: THP-1 ISG reporter cells
Test: THP-1 ISG reporter cell assay in the context of cGAMP delivery
Type: cell-based
Conditions: free cGAMP, dashed line in FIG. 10C; read-out: Half-maximal response of cGAMP
Description: The graft copolymers disclosed herein were next tested for bioactivity and drug delivery properties. As illustrated in FIGS. 9A-B, hemolysis, a measure of endosomolytic activity, increases with increasing MW and decreases with increasing hydrophilic weight fraction. Turning to FIGS. 10A-D, THP-1 ISG reporter cells were used to determine cellular uptake and cGAMP delivery.

## Nc1nc2c(ncn2[C@@H]2O[C@@H]3COP(=O)(O)O[C@H]4[C@@H](O)[C@H](n5cnc6c(N)ncnc65)O[C@@H]4COP(=O)(O)O[C@@H]2[C@@H]3O)c(=O)[nH]1 [cGAMP]
  EC50: 40 µM
